Test results as given in patent publication US6849607B2, “Galectin recognized photosensitizers for photodynamic therapy” (Health Research, Inc., priority 2001, dated 2005).

Key:
[1] = target: Gal-1 (Homo sapiens, UniProt P09382); test: Gal-1 inhibition binding, indirect ELISA (Gal-1-HRP conjugate on asialofetuin-coated wells)
Experimental: Cell. Biochem., 43, 43-57, 1990) to eliminate the thiol requirement for retention of carbohydrate-binding activity. Coupling of alkylated galaptin to Horseradish peroxidase (HRP) was carried out by a two-step glutaraldehyde procedure as described by Engvall (Engvall E., Enzyme Immunoassay ELISA and EMIT, Methods in Enzymology, 70, 419-439, 1980). The galactin-peroxidase conjugate was prepared in 50% glycerol-1% BSA and stored at -20° C. until use. The binding of the Gal-1 to photosensitizers with and without the galactose moiety was measured by an indirect ELISA method as described by Chen et al. […] The microtiter wells (Dynatech Laboratories, Chantilly, Va.) were coated with 2 μg asial fetuin (Sigma) in 100 μl of 0.1M sodium carbonate, 0.2% NaN3, pH 9.6 at 37° C. for 3h. The plates were tightly covered with parafilm and stored at 4° C. for use within three weeks. The optimal dilution for Gal-1HRP conjugate was determined by checker-board titration. For studying the effect of saccharides and their conjugates, 60 μl aliquots of diluted Gal-1-HRP conjugate containing 1.4 μg of Gal-1 were mixed separately in duplicate with 60 μl dilute buffer as well as serially diluted test compounds and incubated for 1 h at 37° C. A 100 μl aliquot was transferred to the microtiter wells, which had been coated with […] Fetuin, blocked and washed. The plates were then incubated for 1 h at 37° C. followed by color development with ABTS (Kirkegaard & Perry lab. Gaithersburg, Md.) and reading at 405 nm on an ELISA reader.

[2] = tested on: Molt-4 human leukemic T-cells; test: In vitro photosensitizing efficacy in Molt-4 cells (MTT); format: cell-based; details: for effect of the free saccharide on PDT activity of the conjugate: Molt-4 cells incubated with galactose or lactose at various concentrations (0-100 μM)
Experimental: Both cell lines are known to have some expression for Galectin-1 ([…]., Baum, L. G. and Brewer, C. F., Multivalent Protein-carbohydrate Interactions. A New […] for Super Molecular Assembly and Signal Transduction, Biochemistry, 40:3009-3015, 2001). The Molt-4 cells were grown in RPMI 1640 5% FCS (Fetal calf serum) in 100% humidity with 5% CO2. Cells were transferred to phenol red free (PRF) RPMI 1640 media with 1% FCS and plated at 2.5×10^4 cells/well. After 3 hours incubation in the dark, the cells were washed once with PBS and re-suspended in prf RPMI 1640 with 1% FCS. These cells were then illuminated with a […] Quartz Halogen Lamp with IR and bandpass dichroic filters to allow light between 400 nm-700 nm, at a dose rate of 16 mW/cm^2 at 695 nm. The RIF tumor cells were grown in alpha-DMEM with 10% fetal calf serum, penicillin and streptomycin. Cells were maintained in 5% CO2, 95% air and 100% humidity. […] After overnight incubation to allow the cells to attach the photosensitizers 14 were individually added at variable concentrations. After a 3 hr incubation in the dark at 37° C., the cells were washed once with PBS, then irradiated with the same light source as above (Molt-4 procedure), and the optimal cell kill was obtained at a concentration of 1.0 μM. After PDT the cells were washed once and placed in complete media and incubated for 48 hrs. […] Louis, Mo.) was added to each well (Kessel, D., Luo, Y., Photodynamic Therapy: A Mitochondrial Inducer of Apoptosis, Cell Death Differ. 6:28-35, 1999; MacDonald, I., Morgan, […]., Litchfield, D. J. Dougherty, T. J., Subcellular Localization Patterns and their Relationship to Photodynamic Activity of Pyropheophorbide-a Derivatives, Photochem. Photobiol., 70, 789-997, 1999). After 4 hr incubation at 37° C. the MTT+media were removed and 100 μl DMSO was added to solubilize the formazin crystals. The 96-well plate was read on a microtiter plate reader (Miles Inc. Titertek Multiscan Plus MK II) at an absorbance of 560 nm. The results were plotted as percent survival of the corresponding dark (drug no light) control for each compound tested. Each data point represents the mean from 3 separate experiments, and the error bars are the standard deviation. Each experiment was done with 5 replicate wells. […] The cells were then washed once with phosphate buffer saline (PBS), carbohydrate conjugates were then added, and the cells were again incubated for an additional 3 hrs. After treating with light, the cells were re-suspended in fresh media and incubated for 48 hrs. MTT was added to the cells and incubated for an additional 4 hrs. Dimethylsulfoxide (100 μl) was then added to each well to dissolve the formazin crystals. The plates were read on a 96 well plate reader at an absorbance of 560 nm. The data are in replicates of 6 wells and are normalized to control cells (light, no drug). In another set of experiments, a similar procedure was followed, except, the cells were not washed before the light treatment. […] Louis, Mo.) was added to the cells and incubated for an additional 4 hrs. Dimethylsulfoxide (100 μl) was then added to each well to dissolve the formazin crystals. The plates were read on a 96 well plate reader (Miles Inc. Titertek Multiscan Plus MK II) at an absorbance of 560 nm. The data are in replicates of 6 wells and are normalized to control cells (light, no drug).

[3] = tested on: radiation induced fibrosarcoma (RIF) tumor cell; test: In vitro photosensitizing activity in RIF tumor cells (MTT); format: cell-based; details: 2.0 μM, light dose of 4 J/cm2
Experimental: Both cell lines are known to have some expression for Galectin-1 (Sacchettini, J. C., Baum, L. G. and Brewer, C. F., Multivalent Protein-carbohydrate Interactions. A New Paradiagm for Super Molecular Assembly and Signal Transduction, Biochemistry, 40:3009-3015, 2001). The Molt-4 cells were grown in RPMI 1640 5% FCS (Fetal calf serum) in 100% humidity with 5% CO2. Cells were transferred to phenol red free (PRF) RPMI 1640 media with 1% FCS and plated at 2.5×10^4 cells/well. After 3 hours incubation in the dark, the cells were washed once with PBS and re-suspended in prf RPMI 1640 with 1% FCS. These cells were then illuminated with a 1000W Quartz Halogen Lamp with IR and bandpass dichroic filters to allow light between 400 nm-700 nm, at a dose rate of 16 mW/cm^2 at 695 nm. The RIF tumor cells were grown in alpha-DMEM with 10% fetal calf serum, penicillin and streptomycin. Cells were maintained in 5% CO2, 95% air and 100% humidity. For determining the PDT efficacy, these cells were plated in 96-well plates and a density of 1×10^4 cells well in complete media. After overnight incubation to allow the cells to attach the photosensitizers 14 were individually added at variable concentrations. After a 3 hr incubation in the dark at 37° C., the cells were washed once with PBS, then irradiated with the same light source as above (Molt-4 procedure), and the optimal cell kill was obtained at a concentration of 1.0 μM. After PDT the cells were washed once and placed in complete media and incubated for 48 hrs. […] The 96-well plate was read on a microtiter plate reader (Miles Inc. Titertek Multiscan Plus MK II) at an absorbance of 560 nm. […]

Gal-1, sequence (P09382 whole entry): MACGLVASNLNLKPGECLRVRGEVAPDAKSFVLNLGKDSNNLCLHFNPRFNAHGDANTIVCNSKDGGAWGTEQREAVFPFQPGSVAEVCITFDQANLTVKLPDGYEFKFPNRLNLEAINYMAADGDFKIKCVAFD

Row | SMILES | IC50 ([1]; ELISA, read-out: I50, inhibition of Gal-1 binding) [µM] | in vitro photosensitizing efficacy (in words) ([2]; Molt-4 cells, 2.0 μM, 2a, 3a compared to 1a, 4a compared to 2a and 3a) | effect of free lactose on PDT efficacy of the photosensitizer ([2]; Molt-4 cells, photosensitizer with lactose in a ratio of 1:100, without washing) | cell kill [3] [%] | inhibition at 450 µM ([1]; at 450 μM) [%] | inhibition of Gal-1 binding ([1]; at 450 μM) [%] | effect of the free saccharide on PDT activity of the conjugate [2]
1 | C=C(C=CCO[C@@H]1O[C@H](CO)[C@H](O)[C@H](O)[C@H]1O)CN1C(=O)c2c3nc(cc4[nH]c(cc5nc(cc6[nH]c2c(c6C)C1=O)C(CC)=C5C)c(CC)c4C)C(C)C3CCC(=O)OC (mixture of isomers) [2a, Galactose-Chlorin conjugate Joined with diene linkage] | 114 | significant increases in photosensitizing efficacy | complete inhibition in PDT efficacy | 100 | – | – | –
2 | O=C[C@H](O)[C@@H](O)[C@@H](O)[C@H](O)CO [galactose, reference compound] | – | – | – | – | 3 | 3.29 | did not result in any inhibition in PDT activity
3 | OC[C@H]1O[C@@H](O[C@H]2[C@H](O)[C@@H](O)C(O)O[C@@H]2CO)[C@H](O)[C@@H](O)[C@H]1O (some centres unmarked) [lactose, reference compound] | – | – | – | – | – | – | significant decrease in photosensitizing efficacy
